Experiments:
[1] = test system: MOG induced chronic Experimental Autoimmune Encephalomyelitis (EAE) model; assay: MOG induced chronic EAE in C57Bl/6 mice; format: in vivo; conditions: for % inhibition 1 (incidence) / % inhibition 2 (MMS) / % inhibition 3 (GMS): vs vehicle
in vivo = conditions: male, C57BL/6, mouse, po, 5 mg/kg
Protocol: For all PO administration groups: 1% MC in water (all PO formulations were made just prior to use).
Fasted overnight and fed 4 hr post dose, free access to water
• 1. For plasma samples: An aliquot of 30 μL plasma sample was added with 150 μL ACN which contains IS (Dexamethasane 40 ng/mL, 5 ng/mL) for protein precipitation. The mixture was vortexed for 2 rain and centrifuged at 12000 rpm for 5 min. The 2 μL supernatant was injected into LC-MS/MS. • 2. For diluted plasma samples: An aliquot of 10 μL plasma sample was added with 90 μL blank plasma to obtain the diluted plasma samples, and the sample dilution factor is 10. An aliquot of 10 μL 10-folder-diluted plasma sample was added with 40 μL blank plasma to obtain the diluted plasma samples, and the sample dilution factor is 50. The exaction procedure for diluted samples was same as those for non-diluted samples.
The animals were restrained manually at the designated time points. Approx. 150 μL of blood samples were taken from the animals into K2EDTA tubes via retro-orbital puncture or cardiac puncture for terminal bleeding under anesthesia with Isoflurane. Blood sample was put on ice and centrifuged at 2000 g for 5 min (4° C.) to obtain plasma sample within 15 minutes. Plasma samples were snap frozen by placing into dry-ice.
The plasma samples were stored at approximately −70° C. until analysis. The backup samples are discarded after two months unless specified. The unused dosing solutions are discarded within 1 week after completion of the study.

[2] = in vivo; cited from earlier work
Multiple Sclerosis = conditions: two phase III trials; cited from earlier work
[3] = Atorvastatin 10 mg/kg BID gavage, Day 1-30
[4] = Atorvastatin 50 mg/kg BID gavage, Day 1-30
[5] = Laquinimod 5 mg/kg/day gavage, Day 1-30
[6] = Laquinimod 25 mg/kg/day gavage, Day 1-30

CC(C)c1c(C(=O)Nc2ccccc2)c(-c2ccccc2)c(-c2ccc(F)cc2)n1CC[C@@H](O)C[C@@H](O)CC(=O)O [Atorvastatin, atorvastatin]
Duration [1, 3]: 18.1 ± 2.1 days | GMS value [1, 3]: 2.5 ± 0.6 | Incidence [1, 3]: 15/15 | MMS value [1, 3]: 3.6 ± 0.5 | Onset [1, 3]: 12.4 ± 1.2 days | % inhibition 1 (incidence) [1, 3]: 0% | % inhibition 2 (MMS) [1, 3]: 2.7% | % inhibition 3 (GMS) [1, 3]: 7.4% | Duration [1, 4]: 17.2 ± 4.9 days | GMS value [1, 4]: 2.3 ± 0.7 | Incidence [1, 4]: 14/15 | MMS value [1, 4]: 3.3 ± 1.0 | Onset [1, 4]: 13.8 ± 4.9 days | % inhibition 1 (incidence) [1, 4]: 6.7% | % inhibition 2 (MMS) [1, 4]: 10.8% | % inhibition 3 (GMS) [1, 4]: 14.8% | Mortality ([1]; mouse, in vivo): 0/15

CCN(C(=O)c1c(O)c2c(Cl)cccc2n(C)c1=O)c1ccccc1 [Laquinimod]
Duration [1, 5]: 13.5 ± 7.9 days | GMS value [1, 5]: 1.4 ± 1.0 | Incidence [1, 5]: 12/15 | MMS value [1, 5]: 2.3 ± 1.3 | Mortality [1, 5]: 0/15 | Onset [1, 5]: 16.3 ± 7.7 days | % inhibition 1 (incidence) [1, 5]: 20% | % inhibition 2 (MMS) [1, 5]: 37.8% | % inhibition 3 (GMS) [1, 5]: 48.1% | Duration [1, 6]: 4.1 ± 6.0 days | GMS value [1, 6]: 0.3 ± 0.6 | Incidence [1, 6]: 5/15 | MMS value [1, 6]: 0.7 ± 1.0 | Mortality [1, 6]: 0/15 | Onset [1, 6]: 25.63 ± 7.5 days | % inhibition 1 (incidence) [1, 6]: 66.7% | % inhibition 2 (MMS) [1, 6]: 81.1% | % inhibition 3 (GMS) [1, 6]: 91.9% | AUCINF (in vivo): 71465 ng·h/mL | AUClast (in vivo): 71302 ng·h/mL | AUC(0-inf) (in vivo; AUCINF): 86900 ng·h/mL | AUC(0-t) (in vivo; AUClast): 86700 ng·h/mL | Cmax (in vivo; Cmax): 31100 ng/mL | half-life (in vivo; Terminal t1/2): 3.01 h | Tmax (in vivo; Tmax): 0.5 h | oral bioavailability [2]: high oral bioavailability | safety and tolerability profile (Multiple Sclerosis): favorable safety and tolerability profile

Reference: patent US20180036302A1, “TREATMENT OF MULTIPLE SCLEROSIS WITH COMBINATION OF LAQUINIMOD AND A STATIN” (Teva Pharmaceutical Industries Ltd., priority 2014, published 2018)
